Experimental data from patent US12595230B2, “Substituted 6,7-dihydro-5H-benzo[7]annulene compounds and their derivatives, processes for their preparation and therapeutic uses thereof” (Sanofi, priority 2020, dated 2026).

Biological target: T1, ERα (Homo sapiens, UniProt P03372)
T1 construct: host or cells: MCF7
T1 sequence (P03372 1-595): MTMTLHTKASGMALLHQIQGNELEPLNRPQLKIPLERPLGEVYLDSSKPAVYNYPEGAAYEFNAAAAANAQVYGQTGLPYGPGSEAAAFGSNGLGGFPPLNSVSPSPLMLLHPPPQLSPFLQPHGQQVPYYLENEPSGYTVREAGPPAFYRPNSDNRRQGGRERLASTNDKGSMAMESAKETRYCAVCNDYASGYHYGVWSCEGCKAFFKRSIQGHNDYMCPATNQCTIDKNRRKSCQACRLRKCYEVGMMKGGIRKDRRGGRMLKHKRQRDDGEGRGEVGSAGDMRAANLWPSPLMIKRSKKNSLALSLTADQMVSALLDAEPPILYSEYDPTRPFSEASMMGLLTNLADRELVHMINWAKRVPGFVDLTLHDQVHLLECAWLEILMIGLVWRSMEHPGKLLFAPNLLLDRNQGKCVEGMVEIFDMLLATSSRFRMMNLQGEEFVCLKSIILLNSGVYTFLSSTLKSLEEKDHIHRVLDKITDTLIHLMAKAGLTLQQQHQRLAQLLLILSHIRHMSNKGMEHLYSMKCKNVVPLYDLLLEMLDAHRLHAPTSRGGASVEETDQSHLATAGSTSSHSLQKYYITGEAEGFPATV
Assay: Estrogen receptor degradation activity: breast cancer cell ERα in cell western assay (MCF7 cells)
Assay type: cell-based
Conditions: for % Degradation At 0.3 μM: 4 hours, relative to fulvestrant 0.1 μM positive control; for DC50: read-out: Degradation IC50
Description: Test: Estrogen Receptor Degradation Activity Said test involves measuring the in vitro degradation activity of the compounds of the Table 1a. The measurements of the degradation activities were made using a breast cancer cell ERα in cell western assay as described hereunder. MCF7 cells (ATCC) were seeded in 384 wells microplate (collagen coated) at a concentration of 10000 cells/30 μL per well in red phenol free MEM alpha medium (invitrogen) containing 5% charcoal dextran striped FBS. The following day, 9 points serial 1:5 dilution of each compound was added to the cells in 2.5p L at final concentrations ranging from 0.3-0.0000018 μM (in table 2), or 0.1 μM for fulvestrant (using as positive control). At 4 hours post compound addition the cells were fixed by adding 25 μL of formalin (final concentration 5% formalin containing 0.1% triton) for 10 minutes at room temperature and then washed twice with PBS. Then, 50 μL of LI-COR blocking buffer containing 0.1% Triton was added to plate for 30 minutes at room temperature. LI-COR blocking buffer was removed and cells were incubated overnight at cold room with 50 μL anti-ER rabbit monoclonal antibody (Thermo scientific MA1-39540) diluted at 1:1000 in LI-COR blocking buffer containing 0.1% tween-20. Wells which were treated with blocking buffer but no antibody were used as background control. Wells were washed twice with PBS (0.1% tween-20) and incubated at 37° C. for 60 minutes in LI-COR (0.1% tween-20) containing goat anti-rabbit antibody Alexa 488 (1:1000) and Syto-64 a DNA dye (2 μM final concentration). Cells were then washed 3 times in PBS and scanned in ACUMEN explorer (TTP-Labtech). Integrated intensities in the green fluorescence and red fluorescence were measured to determine the levels of ERα and DNA respectively. The degradation activity with respect to estrogen receptors in this test is given by the concentration which degrades 50% of the estrogen receptor (or IC50) in nM. […] DMSO−fulvestrant)).

[1] = 4 hours post compound addition, concentration which degrades 50% of the estrogen receptor

Row | Compound | % Degradation At 0.3 μM [%] | DC50 [1] [nM] | IC50 [1] [nM]
1 | Cl.O=C(O)c1ccc2c(c1)CCCC(c1ccc(Cl)cc1Cl)=C2c1ccc(CC2CN(CCCF)C2)cc1F [Example 47, 8-(2,4-dichlorophenyl)-9-(2-fluoro-4-((1-(3-fluoropropyl)azetidin-3-yl)methyl)phenyl)-6,7-dihydro-5H-benzo[7]annulene-3-carboxylic acid] | 93 | 0.4 | –
2 | O=C(O)c1ccc2c(c1)CCCC(c1ccccc1CC(F)(F)F)=C2c1ccc(CC2CN(CCCF)C2)cc1 [Example 301, 9-(4-((1-(3-fluoropropyl)azetidin-3-yl)methyl)phenyl)-8-(2-(2,2,2-trifluoroethyl)phenyl)-6,7-dihydro-5H-benzo[7]annulene-3-carboxylic acid] | 89 | 0.5 | –
3 | Cl.O=C(O)c1ccc2c(c1)CCCC(c1cccc3c1CCC3(F)F)=C2c1ccc(CC2CN(CCCF)C2)cc1 [Example 54, 8-(1,1-difluoro-2,3-dihydro-1H-inden-4-yl)-9-(4-((1-(3-fluoropropyl)azetidin-3-yl)methyl)phenyl)-6,7-dihydro-5H-benzo[7]annulene-3-carboxylic acid hydrochloride] | 94 | 0.6 | –
4 | CC(C)C1CCc2cc(C(=O)O)ccc2C(c2ccc(CC3CN(CCCF)C3)cc2)=C1c1ccc(Cl)cc1 (racemic) [Example 317, 8-(4-chlorophenyl)-9-(4-((1-(3-fluoropropyl)azetidin-3-yl)methyl)phenyl)-7-isopropyl-6,7-dihydro-5H-benzo[7]annulene-3-carboxylic acid] | 87 | 1.6 | –
5 | Cc1cc(C(F)(F)F)ccc1C1=C(c2ccc(CC3CN(CCCF)C3)cc2)c2ccc(C(=O)O)cc2CCC1 [Example 17, 9-(4-((1-(3-fluoropropyl)azetidin-3-yl)methyl)phenyl)-8-(2-methyl-4-(trifluoromethyl)phenyl)-6,7-dihydro-5H-benzo[7]annulene-3-carboxylic acid] | 90 | 0.3 | –
6 | Cc1c(F)ccc(C2=C(c3ccc(CC4CN(CCC(F)F)C4)cc3)c3ccc(C(=O)O)cc3CCC2)c1C [Example 285, 9-(4-((1-(3,3-difluoropropyl)azetidin-3-yl)methyl)phenyl)-8-(4-fluoro-2,3-dimethylphenyl)-6,7-dihydro-5H-benzo[7]annulene-3-carboxylic acid] | 89 | 0.4 | –
7 | N#Cc1c(C(=O)O)ccc2c1CCCC(c1ccc(Cl)cc1Cl)=C2c1ccc(CC2CN(CCCF)C2)cc1.O=CO [Example 246, 4-cyano-8-(2,4-dichlorophenyl)-9-(4-((1-(3-fluoropropyl)azetidin-3-yl)methyl)phenyl)-6,7-dihydro-5H-benzo[7]annulene-3-carboxylic acid, formic acid] | 73 | 31.6 | –
8 | N#Cc1cc2c(cc1C(=O)O)CCCC(c1ccc(Cl)cc1Cl)=C2c1ccc(CC2CN(CCCF)C2)cc1 [Example 245, 2-cyano-8-(2,4-dichlorophenyl)-9-(4-((1-(3-fluoropropyl)azetidin-3-yl)methyl)phenyl)-6,7-dihydro-5H-benzo[7]annulene-3-carboxylic acid] | 100 | 269 | –
9 | O=C(O)c1ccc2c(c1)CCCC(c1ccc(Cl)cc1Cl)=C2c1ccc(C(O)C2CN(CCCF)C2)cc1 (single isomer, unassigned) [Example 41, 8-(2,4-dichlorophenyl)-9-(4-((1-(3-fluoropropyl)azetidin-3-yl)(hydroxy)methyl)phenyl)-6,7-dihydro-5H-benzo[7]annulene-3-carboxylic acid] | 95 | 1.6 | –
10 | CC1CCc2cc(C(=O)O)ccc2C(c2ccc(CC3CN(CCCF)C3)cc2)=C1c1ccc(Cl)cc1 (single isomer, unassigned) [Example 327, 8-(4-chlorophenyl)-9-(4-((1-(3-fluoropropyl)azetidin-3-yl)methyl)phenyl)-7-methyl-6,7-dihydro-5H-benzo[7]annulene-3-carboxylic acid] | 86 | 4.7 | –
11 | O=C(O)c1ccc2c(c1)CCCC(c1ccc(Cl)cc1Cl)=C2c1ccc(C(F)C2CN(CCCF)C2)cc1 (single isomer, unassigned) [Example 44, 8-(2,4-dichlorophenyl)-9-(4-(fluoro(1-(3-fluoropropyl)azetidin-3-yl)methyl)phenyl)-6,7-dihydro-5H-benzo[7]annulene-3-carboxylic acid] | 90 | 0.5 | –
12 | CCOC(c1ccc(C2=C(c3ccc(Cl)cc3Cl)CCCc3cc(C(=O)O)ccc32)cc1)C1CN(CCCF)C1 (single isomer, unassigned; isomer 1) [Example 229, 8-(2,4-dichlorophenyl)-9-(4-(ethoxy(1-(3-fluoropropyl)azetidin-3-yl)methyl)phenyl)-6,7-dihydro-5H-benzo[7]annulene-3-carboxylic Acid Isomer 1] | 77 | 0.6 | –
13 | Cl.O=C(O)c1ccc2c(c1)SCCC(c1ccc(Cl)cc1Cl)=C2c1ccc(CC2CN(CCCF)C2)cc1 [Example 52, 4-(2,4-dichlorophenyl)-5-(4-((1-(3-fluoropropyl)azetidin-3-yl)methyl)phenyl)-2,3-dihydrobenzo[b]thiepine-8-carboxylic acid] | 54 | 255 | –
14 | O=C(O)c1ccc2c(c1)CCCC(c1ccc(Cl)cc1Cl)=C2c1ccc(C(F)C2CN(CCCF)C2)cc1 (single isomer, unassigned) [Example 43, 8-(2,4-dichlorophenyl)-9-(4-(fluoro(1-(3-fluoropropyl)azetidin-3-yl)methyl)phenyl)-6,7-dihydro-5H-benzo[7]annulene-3-carboxylic acid] | 90 | 0.4 | –
15 | O=C(O)c1ccc2c(c1)CCCC(c1cccc(F)c1C(F)(F)F)=C2c1ccc(CC2CN(CCC(F)F)C2)cc1 [Example 278, 9-(4-((1-(3,3-difluoropropyl)azetidin-3-yl)methyl)phenyl)-8-(3-fluoro-2-(trifluoromethyl)phenyl)-6,7-dihydro-5H-benzo[7]annulene-3-carboxylic acid] | 84 | – | 0.2
16 | Cc1ccc(C2=C(c3ccc(CC4CN(CCCF)C4)cc3)c3cc(F)c(C(=O)O)c(F)c3CCC2)c(Cl)c1 [Example 217, 8-(2-chloro-4-methylphenyl)-2,4-difluoro-9-(4-((1-(3-fluoropropyl)azetidin-3-yl)methyl)phenyl)-6,7-dihydro-5H-benzo[7]annulene-3-carboxylic acid] | 86 | 6.2 | –
17 | O=C(O)c1ccc2c(c1)CCCC(C1C[C@H]3CCC[C@H]3C1)=C2c1ccc(CC2CN(CCCF)C2)cc1 (single isomer, unassigned) [Example 336, 9-(4-((1-(3-fluoropropyl)azetidin-3-yl)methyl)phenyl)-8-(octahydropentalen-2-yl)-6,7-dihydro-5H-benzo[7]annulene-3-carboxylic acid] | 86 | 0.9 | –
18 | O=C(O)c1ccc2c(c1)CCCC(c1cccc(C(F)(F)F)c1F)=C2c1ccc(CC2CN(CCC(F)F)C2)cc1 [Example 288, 9-(4-((1-(3,3-difluoropropyl)azetidin-3-yl)methyl)phenyl)-8-(2-fluoro-3-(trifluoromethyl)phenyl)-6,7-dihydro-5H-benzo[7]annulene-3-carboxylic acid] | 81 | 0.5 | –
19 | COc1ccc(C2=C(c3ccc(CC4CN(CCCF)C4)cc3)c3ccc(C(=O)O)cc3CCC2)c(Cl)c1 [Example 24, 8-(2-chloro-4-methoxyphenyl)-9-(4-((1-(3-fluoropropyl)azetidin-3-yl)methyl)phenyl)-6,7-dihydro-5H-benzo[7]annulene-3-carboxylic acid] | 92 | 0.4 | –
